Data taken from article PMC7794297.
Several values for one entry are separate records, joined by “and”; a condition that tells them apart may be missing. Equal entries are not always repeated. Where two headings read alike, the source gives them in different places.

What was measured:
[1] = target: glucose oxidase (GOx) (Aspergillus niger, UniProt P13006); assay: Glucose oxidase-directed DCL of building blocks 1-4; design: purchased Sigma Aldrich; unit not given here; settings: blank vs GOx template DCL; GOx 57 μM, Secox 5% mol, 24 h
Protocol: The equilibration of the DCL was completed after 24 h (Fig. 9) and the oligomers were identified by HPLC-MS (Supplementary Figs. 4–20). The precise composition of the DCL (with and without GOx), was assessed by measuring the relative peak area (RPA). The normalized change of RPA was used to quantify the protein influence in the final DCL showing the amplification of the dimer of compound 4, that is (4)2 (Fig. 9b). Control experiments were set up to verify that the amplification of the dimer was not due to unspecific binding. Firstly the GOx was replaced by the bovine serum albumin (BSA). A stability study of BSA under the DCL conditions was performed using a fluorescence technique confirming the BSA stability in the DCL experiment (Supplementary Fig. 48)[50].
The DCL was stabilized for 24 h at 6 °C. Then, GOx was removed by ultracentrifugation through an Amicon ultra-filter (100 KDa). HPLC analysis was performed.

[2] = target: bovine serum albumin (BSA) (Bos taurus, UniProt P02769); assay: BSA-directed DCL of building blocks 1-4; design: purchased Roche; key to NC of RPA: normalized change of relative peak area (RPA) vs blank DCL; settings: blank vs BSA-DCL; BSA 57 µM, Secox 5% mol, 24 h
[3] = Spermidine-templated DCL of building blocks 1-4;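 note: Spermidine-templated dynamic combinatorial library, normalized change of RPA compared between Secox-free and Secox-containing libraries, DCC runs done in triplicate, values given as mean ± SD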
[4] = NADPH-templated DCL of building blocks 1-4;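 note: values are means ± SD of DCC experiments run in triplicate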
[5] = Spermine-templated DCL of building blocks 1-4; settings: spermine DCL of 1-4
Protocol: (§1) Building blocks 2 and 3 equipped with carboxylate moieties to establish interactions with the protonated amine groups of the spermine were allowed to equilibrate at pH 7.8 and 6 °C (Fig. 8a). As expected in our control experiment, the major component in the absence of spermine was the linear tetramer (2)2(3)2. After the addition of spermine, the linear tetramer “decomposed” in order to form mainly the cyclic tetramer of (2)4, and the (3)2 dimer (Fig. 8a). As it was reported, several studies determined that the spermine was threaded through the macrocycle fixing the configuration to a highly symmetric stereoisomer of (2)4[36]. […] The precise composition of the DCL (with and without spermine), was assessed by measuring the relative peak area (RPA). Indeed, the normalized change of RPA was used to quantify the spermine influence in the outcome (Supplementary Fig. 42)[46]. The same template (spermine) was tested in our reference DCL of four building blocks (1–4) in the absence and presence of Secox (Fig. 8b). […] Additionally, two different templates were tested to confirm the absence of conflict between selenocystine and the templating effect. Spermidine and NADPH were introduced in our 4 building blocks DCL (1–4) in the absence and presence of Secox, leading to the amplification of different species and getting the same results as the non-catalyzed DCLs (Supplementary Figs. 44, 45, Supplementary Tables 7–10, and Supplementary Methods).
The mixture was stabilized in 96 h. […] The mixture was stabilized after 24 h. […] It was stabilized in 24 h. […] DCL was equilibrated in 96 h. DCLs were performed without stirring at 6 °C and analyzed by HPLC-MS.

[6] = cited from earlier work
[7] = Equilibration of the thiol-disulfide DCL of building blocks 1-4 followed by HPLC-MS; settings: 190 μM as fifth building block; Tris 20 mM pH 7.8, 6 °C; control 4 days
Protocol: DMSO percentage is 2.5% v/v. […] DCLs were analyzed by HPLC-MS until equilibration without stirring at 6 °C.
Control DCL. […] DMSO percentage is 2.5% v/v. Regarding Secox catalyzed DCL, different stocks of Secox were carried out in order to study the percentages of Secox. […] The DCLs were prepared at 6 °C without stirring and analyzed in several hours until the complete stabilization.

[8] = Spermine-templated DCL of building blocks 2 and 3; settings: spermine DCL of 2 and 3
Protocol: as §1
The DCL was stabilized at 96 h. […] The mixture was stabilized after 24 h. […] The DCL was stabilized at 96 h. […] The DCL was analyzed in 96 h after equilibration. DCLs were performed without stirring at 6 °C and analyzed by HPLC-MS.

glucose oxidase (GOx), sequence (P13006 17-605): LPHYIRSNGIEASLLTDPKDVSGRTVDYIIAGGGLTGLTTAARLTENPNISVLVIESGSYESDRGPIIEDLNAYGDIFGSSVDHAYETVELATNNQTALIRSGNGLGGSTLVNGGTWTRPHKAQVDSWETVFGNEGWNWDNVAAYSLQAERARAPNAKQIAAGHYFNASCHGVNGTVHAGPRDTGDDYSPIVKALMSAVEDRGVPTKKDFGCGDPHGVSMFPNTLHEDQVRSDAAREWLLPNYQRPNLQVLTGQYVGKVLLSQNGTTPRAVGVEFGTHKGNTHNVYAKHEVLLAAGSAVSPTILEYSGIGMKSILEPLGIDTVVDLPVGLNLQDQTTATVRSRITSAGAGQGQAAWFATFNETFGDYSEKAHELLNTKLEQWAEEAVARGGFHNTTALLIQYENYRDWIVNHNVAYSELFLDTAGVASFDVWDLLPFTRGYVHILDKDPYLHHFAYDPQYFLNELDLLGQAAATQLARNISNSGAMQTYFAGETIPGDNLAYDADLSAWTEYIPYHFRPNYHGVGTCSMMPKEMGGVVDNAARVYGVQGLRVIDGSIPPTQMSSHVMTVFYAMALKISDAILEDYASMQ
bovine serum albumin (BSA), sequence (P02769 25-607): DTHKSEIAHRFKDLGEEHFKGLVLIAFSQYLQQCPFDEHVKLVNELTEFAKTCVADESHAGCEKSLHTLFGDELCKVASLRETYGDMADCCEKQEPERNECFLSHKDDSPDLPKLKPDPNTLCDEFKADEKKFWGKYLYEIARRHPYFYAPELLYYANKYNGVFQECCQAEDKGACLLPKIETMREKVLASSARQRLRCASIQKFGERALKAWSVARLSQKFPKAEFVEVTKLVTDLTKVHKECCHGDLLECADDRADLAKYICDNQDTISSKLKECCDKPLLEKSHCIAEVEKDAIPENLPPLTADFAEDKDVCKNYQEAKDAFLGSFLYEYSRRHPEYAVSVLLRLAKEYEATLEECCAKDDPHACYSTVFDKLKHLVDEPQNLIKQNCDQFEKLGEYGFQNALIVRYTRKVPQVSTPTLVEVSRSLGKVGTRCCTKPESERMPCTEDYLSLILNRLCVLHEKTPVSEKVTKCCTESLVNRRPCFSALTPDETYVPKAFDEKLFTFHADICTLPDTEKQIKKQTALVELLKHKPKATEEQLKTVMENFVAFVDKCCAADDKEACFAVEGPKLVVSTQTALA

SMILES	NC of RPA [1]	NC of RPA [2]	Normalized Change of RPA (NC) ([3]; 0% Secox)	Normalized Change of RPA (NC) ([3]; 5% Secox)	Normalized Change of RPA (NC) ([4]; 0% Secox)	Normalized Change of RPA (NC) ([4]; 5% Secox)	Normalized Change of RPA (NC) ([5]; 0% Secox)	Normalized Change of RPA (NC) ([5]; 5% Secox)	pKa ([6]; Sec)	DCL equilibration time [7] [days]	pKa ([6]; Cys thiol group)	Normalized Change of RPA (NC) ([8]; Secox)	Normalized Change of RPA (NC) ([8]; no Secox)
O=C(O)c1cc(SSc2ccccc2)cc(SSc2cc(C(=O)O)c(SSc3ccccc3)cc2C(=O)O)c1 [(1)(2)(4)2]	-1,00	2,84	-1,00	-1,00	-1,00	-1,00	-1,00	-1,00	–	–	–	–	–
O=C(O)c1cccc(SSc2cc(C(=O)O)c(SSc3cc(C(=O)O)c(SSc4cccc(C(=O)O)c4)cc3C(=O)O)cc2C(=O)O)c1 [(2)2(3)2]	-1,00	-1,00	-1,00	-1,00	-0,69	-0,64	-1,00	-1,00	–	–	–	–	–
O=C(O)c1cc(SSc2cc(C(=O)O)c(SSc3ccccc3)cc2C(=O)O)c(C(=O)O)cc1SSc1ccccc1 [(2)2(4)2]	-1,00	0,31	-1,00	-1,00	0,13	0,11	-1,00	-1,00	–	–	–	–	–
O=C(O)c1cccc(SSc2cc(C(=O)O)c(SSc3cccc(C(=O)O)c3)cc2C(=O)O)c1 [(2)(3)2]	0,72	-1,00	-0,11	-0,19	2,41	2,37	-0,26	-0,28	–	–	–	–	–
O=C(O)c1cccc(SSc2cc(SSc3cccc(C(=O)O)c3)cc(C(=O)O)c2)c1 [(1)(3)2]	-0,46	-0,75	0,83	0,86	1,24	1,23	1,19	1,25	–	–	–	–	–
N[C@@H](C[SeH])C(=O)O [Sec, selenocysteine]	–	–	–	–	–	–	–	–	5.43 and ~ 5.43	–	–	–	–
O=C(O)c1cccc(SSc2cc(SSc3ccccc3)cc(C(=O)O)c2)c1 [(3)(1)(4)]	0,54	2,28	-1,00	-1,00	-0,82	-0,76	-0,51	-0,51	–	–	–	–	–
N[C@@H](CSSC[C@H](N)C(=O)O)C(=O)O [Cysox, cystine]	–	–	–	–	–	–	–	–	–	3	–	–	–
O=C(O)c1cccc(SSc2cc(C(=O)O)c(SSc3ccccc3)cc2C(=O)O)c1 [(2)(3)(4)]	-0,32	0,95	-0,64	-0,65	-0,12	-0,12	-0,75	-0,74	–	–	–	–	–
N[C@@H](CS)C(=O)O [Cys, cysteine]	–	–	–	–	–	–	–	–	–	–	8.22 and ~ 8.22	–	–
O=C(O)c1cccc(SSc2cc(SSc3cc(SSc4cccc(C(=O)O)c4)cc(C(=O)O)c3)cc(C(=O)O)c2)c1 [(1)2(3)2]	-0,36	0,63	0,34	0,27	-0,06	-0,06	0,46	0,38	–	–	–	–	–
O=C(O)c1cc2cc(c1)SSc1cc(cc(C(=O)O)c1)SSc1cc(cc(C(=O)O)c1)SS2 [(1)3]	-0,21	-0,19	-0,42	-0,44	-0,70	-0,68	-0,65	-0,66	–	–	–	–	–
O=C(O)c1cc(SSc2ccccc2)c(C(=O)O)cc1SSc1ccccc1 [(2)(4)2]	0,19	1,30	0,06	0,04	-0,16	-0,18	0,08	0,08	–	–	–	–	–
O=C(O)c1cccc(SSc2cccc(C(=O)O)c2)c1 [(3)2, 3,3'-disulfanediyldibenzoic acid]	-0,35	-0,64	0,51	0,51	0,56	0,49	0,49	0,49	–	–	–	0.1	0.1
O=C(O)c1cc2cc(c1)SSc1cc(cc(C(=O)O)c1)SSc1cc(cc(C(=O)O)c1)SSc1cc(cc(C(=O)O)c1)SS2 [(1)4]	-0,86	0,14	-0,47	-0,43	-0,84	-0,88	-0,14	-0,12	–	–	–	–	–
O=C(O)c1cc(SSc2ccccc2)cc(SSc2ccccc2)c1 [(1)(4)2]	–	45,89	–	–	–	–	–	–	–	–	–	–	–
